{
  "source": "patent US8269000B2",
  "about": "“Substituted pyrimidine and triazine compounds” (Gruenenthal GmbH, priority 2008, dated 2012)",
  "data": [
    {"target": "T1, rat B1R (Rattus norvegicus, UniProt P97583)", "T1 construct": "expressed in transfected cells; host or cells: CHO K1 cells", "T1 sequence (P97583 1-337)": "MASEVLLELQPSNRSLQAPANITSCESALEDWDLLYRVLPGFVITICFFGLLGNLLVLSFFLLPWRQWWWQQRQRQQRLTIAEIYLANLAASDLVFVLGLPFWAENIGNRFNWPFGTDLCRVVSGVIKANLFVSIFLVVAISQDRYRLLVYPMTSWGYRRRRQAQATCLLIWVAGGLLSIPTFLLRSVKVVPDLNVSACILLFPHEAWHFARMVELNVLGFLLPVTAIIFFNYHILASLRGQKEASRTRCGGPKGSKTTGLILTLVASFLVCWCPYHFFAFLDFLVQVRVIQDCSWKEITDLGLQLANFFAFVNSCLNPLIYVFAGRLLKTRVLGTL", "assay": "FLIPR Ca2+ functional study on bradykinin receptor 1 (rB1R CHO K1 cells)", "type": "cell-based", "conditions": "% inhibition rat B1R at 10 μM", "protocol": "(§1) The agonistic or antagonistic activity of substances can be quantified on the bradykinin receptor 1 (B1R) of the species human and rat using ectopically expressing cell lines (CHO K1 cells) and with the aid of a Ca^2+-sensitive dye (Fluo-4) using a fluorescent imaging plate reader (FLIPR). The indication in % activation is based on the Ca^2+ signal after addition of Lys-Des-Arg^9-bradykinin (0.5 nM) or Des-Arg^9-bradykinin (100 nM). Antagonists lead to suppression of the Ca^2+ influx after the addition of the agonist. % Inhibition compared with the maximum achievable inhibition is indicated.\n(§2) The agonistic or antagonistic activity of substances can be determined on the bradykinin receptor 1 (B1R) of the species human and rat using the following assay. According to this assay, the Ca^2+ influx through the channel is quantified with the aid of a Ca^2+-sensitive dye (Fluo-4 type, Molecular Probes Europe BV, Leiden, Netherlands) using a Fluorescent Imaging Plate Reader (FLIPR, Molecular Devices, Sunnyvale, USA).\n(§3) Chinese hamster ovary cells (CHO K1 cells) which have been stably transfected with the human B1R gene (hB1R cells) or with the B1R gene of the rat (rB1R cells) are used. For functional studies, the cells are plated out on black 96-well plates having a clear base (BD Biosciences, Heidelberg, Germany or Greiner, Frickenhausen, Germany) in a density of 20,000-35,000 cells/well. The cells are left overnight at 37° C. and with 5% CO2 in culture medium (hB1R cells: Nutrient Mixture Ham's F12, Gibco Invitrogen GmbH, Karlsruhe, Germany or DMEM, Sigma-Aldrich, Taufkirchen, Germany; rB1R cells: D-MEM/F12, Gibco Invitrogen GmbH, Karlsruhe, Germany), with 10 vol.% FBS (fetal bovine serum, Gibco Invitrogen GmbH, Karlsruhe, Germany or PAN Biotech GmbH, Aidenbach, Germany). On the following day, the cells are loaded for 60 minutes at 37° C. with 2.13 μM Fluo-4 (Molecular Probes Europe BV, Leiden, Netherlands) in HBSS buffer (Hank's buffered saline solution, Gibco Invitrogen GmbH, Karlsruhe, Germany) […] (Sigma-Aldrich, Taufkirchen, Germany) and 10 mM HEPES (Sigma-Aldrich, Taufkirchen, Germany). The plates are then washed twice with HBSS buffer, and HBSS buffer additionally containing 0.1% BSA (bovine serum albumin; Sigma-Aldrich, Taufkirchen, Germany), 5.6 mM glucose and 0.05% gelatin (Merck KGaA, Darmstadt, Germany) is added to the plates. After incubation for a further 20 minutes at room temperature, the plates are inserted into the FLIPR for Ca^2+ measurement. Alternatively, washing is carried out with buffer A (15 mM HEPES, 80 mM NaCl, 5 mM KCl, 1.2 mM CaCl2, 0.7 mM MgSO4, 2 g/l glucose, 2.5 mM probenecid) followed by loading with buffer A with added 2.5 μM Fluo-4 and 0.025% Pluronic F127 (Sigma-Aldrich, Taufkirchen, Germany). The cells are then washed twice with buffer A and incubated for 30 minutes at room temperature with buffer A additionally containing 0.05% BSA and 0.05% gelatin and are then inserted into the FLIPR for Ca^2+ measurement. The Ca^2+-dependent fluorescence is measured before and after the addition of substances (λex=488 nm, λem=540 nm). Quantification is carried out by measuring the highest fluorescence intensity (FC, fluorescence counts) over time.\n(§4) The FLIPR protocol consists of two substance additions. Test substances (10 μM) are first pipetted onto the cells and the Ca^2+ influx is compared with the control (hB1R: Lys-Des-Arg^9-bradykinin>=50 nM; rB1R: Des-Arg^9-bradykinin 10 μM). This gives the activation in %, based on the Ca^2+ signal after addition of Lys-Des-Arg^9-bradykinin (>=50 nM) or Des-Arg^9-bradykinin (10 μM). After 10-20 minutes' incubation, Lys-Des-Arg^9-bradykinin (hB1R) or Des-Arg^9-bradykinin (rB1R) is applied in the concentration of the EC80, and the influx of Ca^2+ is likewise determined. Antagonists lead to suppression of the Ca^2+ influx. The % inhibition compared with the maximum achievable inhibition is calculated. […]", "units": {"% inh. (rat B1R) 10 μM": "%"}, "values": [
      {"smiles": "COc1cc(C)c(S(=O)(=O)N2CCC[C@H]2COc2ccnc(N3CCN(CC4CCN(C)CC4)CC3)n2)c(C)c1", "note": "[H_CC-012, 4-[[(2S)-1-(4-methoxy-2,6-dimethylphenyl)sulfonyl-2-pyrrolidinyl]methoxy]-2-[4-[(1-methyl-4-pipendinyl)methyl]-1-piperazinyl]pyrimidine]", "% inh. (rat B1R) 10 μM": 93},
      {"smiles": "COc1cc(C)c(S(=O)(=O)N2CCC[C@H]2COc2ccnc(N3CCN(C4CCN(C)CC4)CC3)n2)c(C)c1", "note": "[H_CC-025, 4-[[(2S)-1-(4-methoxy-2,6-dimethylphenyl)sulfonyl-2-pyrrlidinyl]methoxy]-2-[4-(1-methyl-4-piperidinyl)-1-piperazinyl]pyrimidine]", "% inh. (rat B1R) 10 μM": 65},
      {"smiles": "COc1cc(C)c(S(=O)(=O)N2CCC[C@H]2COc2nccc(N3CCC(CCN4CCCCC4)CC3)n2)c(C)c1", "note": "[G_CC-037]", "% inh. (rat B1R) 10 μM": 102}
    ]},
    {"target": "T1, rat B1R", "assay": "FLIPR Ca2+ functional study on bradykinin receptor 1 (rB1R CHO K1 cells)", "type": "cell-based", "conditions": "CHO-K1, % inhibition rat B1R at 10 μM, read-out: % inh. (rat B1R) 10 μM", "protocol": "as §1, §2, §3, §4", "units": {"inhibition at 10 µM": "%"}, "values": [
      {"smiles": "COc1cc(C)c(S(=O)(=O)N2CCC[C@@H]2COc2nccc(N3CCCC3Cc3ccccn3)n2)c(C)c1", "note": "(stereo partly drawn) [G_CC-084, 2-[[(2R)-1-[(4-methoxy-2,6-dimethyl-phenyl)sulfonyl]-pyrrolidin-2-yl]-methoxy]-4-[2-(pyridin-2-yl-methyl)-pyrrolidin-1-yl]-pyrimidine]", "inhibition at 10 µM": 83},
      {"smiles": "COc1cc(C)c(S(=O)(=O)N2CCCCC2COc2nccc(N3CCC4(CC3)OCc3ccccc34)n2)c(C)c1", "note": "(stereo not shown) [G_CC-023, 1′-[2-[[1-(4-methoxy-2,6-dimethylphenyl)sulfonyl-2-piperidinyl]methoxy]-4-pyrimidinyl]spiro[1H-isobenzofuran-3,4′-piperidine]]", "inhibition at 10 µM": 50},
      {"smiles": "COc1cc(C)c(S(=O)(=O)N(C)CCOc2ccnc(N(C)CCN3CCC(c4ccccc4)(N(C)C)CC3)n2)c(C)c1", "note": "[H_CC-067, N-[2-[2-[2-(4-dimethylamino-4-phenyl-piperidin-1-yl)-ethyl-methyl-amino]-pyrimidin-4-yl]oxy-ethyl]-4-methoxy-N,2,6-trimethyl-benzenesulfonic acid amide]", "inhibition at 10 µM": 59},
      {"smiles": "COc1cc(C)c(S(=O)(=O)N2CCCCC2COc2nccc(N(C)CCCN3CCC(c4ccccc4)(N(C)C)CC3)n2)c(C)c1", "note": "(stereo not shown) [G_CC-101, 3-(4-dimethylamino-4-phenyl-piperidin-1-yl)-propyl-[2-[[1-[(4-methoxy-2,6-dimethyl-phenyl)sulfonyl]-piperidin-2-yl]-methoxy]-pyrimidin-4-yl]-methyl-amine]", "inhibition at 10 µM": 105},
      {"smiles": "COc1cc(C)c(S(=O)(=O)N2CC(Oc3ccnc(N(C)CCN4CCC(c5ccccc5)(N(C)C)CC4)n3)C2)c(C)c1", "note": "[H_CC-069, 2-(4-dimethylamino-4-phenyl-piperidin-1-yl)-ethyl-[4-[1-[(4-methoxy-2,6-dimethyl-phenyl)sulfonyl]-azetidin-3-yl]oxy-pyrimidin-2-yl]-methyl-amine]", "inhibition at 10 µM": 52},
      {"smiles": "COc1cc(C)c(S(=O)(=O)N2CCC[C@H]2COc2nccc(N(C)CCN3CCC(c4ccccc4)(N4CCCC4)CC3)n2)c(C)c1", "note": "[G_CC-091, [2-[[(2S)-1-[(4-methoxy-2,6-dimethyl-phenyl)sulfonyl]-pyrrolidin-2-yl]-methoxy]-pyrimidin-4-yl]-methyl-[2-(4-phenyl-4-pyrrolidin-1-yl-piperidin-1-yl)-ethyl]-amine]", "inhibition at 10 µM": 101},
      {"smiles": "COc1cc(C)c(S(=O)(=O)N2CCC[C@H]2COc2nccc(N3CCN(c4ncccn4)CC3)n2)c(C)c1", "note": "[G_CC-018, 2-[[(2S)-1-(4-methoxy-2,6-dimethylphenyl)sulfonyl-2-pyrrolidinyl]methoxy]-4-[4-(2-pyrimidinyl)-1-piperazinyl]pyrimidine]", "inhibition at 10 µM": 97},
      {"smiles": "COc1cc(C)c(S(=O)(=O)N(C)C(COc2nccc(N3CCCC3Cc3ccccn3)n2)c2ccccc2)c(C)c1", "note": "(stereo not shown) [G_CC-133, 4-methoxy-N,2,6-trimethyl-N-[1-phenyl-2-[4-[2-(pyridin-2-yl-methyl)-pyrrolidin-1-yl]-pyrimidin-2-yl]oxy-ethyl]benzenesulfonic acid amide]", "inhibition at 10 µM": 78},
      {"smiles": "CCCCC1(N(C)C)CCN(c2nccc(OCC3CCCCN3S(=O)(=O)c3c(C)cc(OC)cc3C)n2)CC1", "note": "(stereo not shown) [H_CC-062, [4-butyl-1-[4-[[1-[(4-methoxy-2,6-dimethyl-phenyl)sulfonyl]-piperidin-2-yl]-methoxy]-pyrimidin-2-yl]-piperidin-4-yl]-dimethyl-amine]", "inhibition at 10 µM": 73},
      {"smiles": "COc1cc(C)c(S(=O)(=O)N2CCCCC2COc2nccc(N3CC4CC3CN4Cc3ccncc3)n2)c(C)c1", "note": "(stereo not shown) [G_CC-056, 5-[2-[[1-(4-methoxy-2,6-dimethylphenyl)sulfonyl-2-piperidinyl]methoxy]-4-pyrimidinyl]-2-(4-pyridylmethyl)-2,5-diazabicyclo[2.2.1]heptane]", "inhibition at 10 µM": 98},
      {"smiles": "COc1cc(C)c(S(=O)(=O)N2CCCCC2COc2ccnc(N(C)CCN3CCC(c4ccccc4)(N4CCCC4)CC3)n2)c(C)c1", "note": "(stereo not shown) [H_CC-063, [4-[[1-[(4-methoxy-2,6-dimethyl-phenyl)sulfonyl]-piperidin-2-yl]-methoxy]-pyrimidin-2-yl]-methyl-[2-(4-phenyl-4-pyrrolidin-1-yl-piperidin-1-yl)-ethyl]-amine]", "inhibition at 10 µM": 82},
      {"smiles": "COc1cc(C)c(S(=O)(=O)N2CCC[C@H]2COc2ccnc(N3CCC(O)(c4cccnc4)CC3)n2)c(C)c1", "note": "[H_CC-013, 1-[4-[[(2S)-1-(4-methoxy-2,6-dimethylphenyl)sulfonyl-2-pyrrolidinyl]methoxy]-2-pyrimidinyl]-4-(3-pyridyl)-4-piperidinol]", "inhibition at 10 µM": 79},
      {"smiles": "CCCCC1(N(C)C)CCN(CCN(C)c2nccc(OC[C@@H]3Cc4ccccc4N3S(=O)(=O)c3c(C)cc(OC)cc3C)n2)CC1", "note": "[H_CC-058, 2-(4-butyl-4-dimethylamino-piperidin-1-yl)-ethyl-[4-[[(2S)-1-[(4-methoxy-2,6-dimethyl-phenyl)sulfonyl]-2,3-dihydro-1H-indol-2-yl]-methoxy]-pyrimidin-2-yl]-methyl-amine]", "inhibition at 10 µM": 97},
      {"smiles": "COc1cc(C)c(S(=O)(=O)N2CCCCC2COc2ccnc(N3CCC4(CCN(Cc5ccccc5)C4)C3)n2)c(C)c1", "note": "(stereo not shown) [H_CC-021, 3-benzyl-7-[4-[[1-(4-methoxy-2,6-dimethylphenyl)sulfonyl-2-piperidinyl]methoxy]-2-pyrimidinyl]-3,7-diazaspiro[4.4]nonane]", "inhibition at 10 µM": 62},
      {"smiles": "COc1cc(C)c(S(=O)(=O)N(C)C(COc2nccc(N3CCC(Oc4ccccn4)CC3)n2)c2ccccc2)c(C)c1", "note": "(stereo not shown) [G_CC-136, 4-methoxy-N,2,6-trimethyl-N-[1-phenyl-2-[4-(4-pyridin-2-yloxy-piperidin-1-yl)-pyrimidin-2-yl]oxy-ethyl]benzenesulfonic acid amide]", "inhibition at 10 µM": 81},
      {"smiles": "CN(C(COc1ccnc(N2CCC(OCCN3CCCC3)(c3cccnc3)CC2)n1)c1ccccc1)S(=O)(=O)c1ccc2ccccc2c1", "note": "(stereo not shown) [H_CC-038, N-methyl-N-[1-phenyl-2-[[2-[4-(3-pyridyl)-4-(2-1-pyrrolidinylethoxy)-1-piperidinyl]-4-pyrimidinyl]oxy]ethyl]-2-naphthalenesulfonamide]", "inhibition at 10 µM": 70}
    ]}
  ]
}
